Converted amounts (≈) assume the structure as drawn.
Experiments:
[1] = target: T1, PBP3 from Acinetobacter baumannii (ATCC 19606) (Acinetobacter baumannii, UniProt A0ABX6CK25); experiment: Bocillin-FL fluorescence polarization competition binding, A. baumannii PBP3; conditions: fluorescence polarization competition binding assay using Bocillin-FL; read-out: A. baumannii PBP3 Potency
T1 sequence (A0ABX6CK25 64-610): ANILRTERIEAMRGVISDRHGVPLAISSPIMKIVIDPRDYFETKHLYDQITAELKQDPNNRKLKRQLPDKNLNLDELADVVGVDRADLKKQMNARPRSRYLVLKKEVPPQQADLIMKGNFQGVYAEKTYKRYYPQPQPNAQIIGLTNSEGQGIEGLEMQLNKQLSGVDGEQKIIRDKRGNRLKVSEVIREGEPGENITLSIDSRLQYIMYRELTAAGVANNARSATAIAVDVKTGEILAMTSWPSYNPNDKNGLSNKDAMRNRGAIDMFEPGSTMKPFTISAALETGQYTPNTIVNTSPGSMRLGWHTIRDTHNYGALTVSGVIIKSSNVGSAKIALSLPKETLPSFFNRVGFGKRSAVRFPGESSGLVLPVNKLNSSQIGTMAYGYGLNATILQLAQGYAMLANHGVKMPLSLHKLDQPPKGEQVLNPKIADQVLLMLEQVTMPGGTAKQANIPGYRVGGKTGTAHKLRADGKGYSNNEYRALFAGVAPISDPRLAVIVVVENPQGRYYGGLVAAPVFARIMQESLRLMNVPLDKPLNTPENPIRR
Procedure, shortened: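 Purified PBP was preincubated with inhibitor (E. coli PBP3 1.5 μM, 30 min; P. aeruginosa PBP3 0.75 μM, A. baumannii PBP3 0.2 μM and PBP1a 1 μM, 15 min), then Bocillin-FL (0.1 μM; 0.05 μM for PBP1a) added and FP read up to 60 min. EC50 = 50% loss of bound probe.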

[2] = system: P. aeruginosa CDC-0110; experiment: microbe, parasite or virus in culture; assay type: cell-based; conditions: Pseudomonas aeruginosa, CDC0110, read-out: Minimum inhibitory concentration, P. aeruginosa CDC-0110

O=C(O)c1c(F)ccc2c1OB(O)[C@@H](NC(=O)C(NC(=O)N1CCN(C3CCN(C(=O)Nc4cc(O)c(F)cc4Cl)CC3)C(=O)C1=O)c1cc(F)c(O)c(O)c1Cl)C2 (stereo partly drawn) [Example 490, (3R)-3-(2-(4-(1-((2-chloro-4-fluoro-5-hydroxyphenyl)carbamoyl)piperidin-4-yl)-2,3-dioxopiperazine-1-carboxamido)-2-(2-chloro-5-fluoro-3,4-dihydroxyphenyl)acetamido)-7-fluoro-2-hydroxy-3,4-dihydro-2H-benzo[e][1,2]oxaborinine-8-carboxylic acid]
IC50 [1]: < 10 µM
MIC [2]: 2 to 4 mg/L (≈ 2.34 to 4.69 µM)

O=C(O)c1c(F)ccc2c1OB(O)[C@@H](NC(=O)[C@H](NC(=O)N1CCN(C3CCN(C(=O)c4cc(F)c(O)c(O)c4Cl)CC3)C1=O)c1ccc(P(=O)(O)O)cc1)C2 (single isomer, unassigned) [Example 495]
MIC [2]: < 1 mg/L

O=C(NCCN1CCN(C(=O)N[C@@H](C(=O)N[C@H]2Cc3ccc(F)c(C(=O)O)c3OB2O)c2ccc(P(=O)(O)O)cc2)C(=O)C1=O)c1ccc(O)c(O)c1Cl [Example 503, (R)-3-((R)-2-(4-(2-(2-chloro-3,4-dihydroxybenzamido)ethyl)-2,3-dioxopiperazine-1-carboxamido)-2-(4-phosphonophenyl)acetamido)-7-fluoro-2-hydroxy-3,4-dihydro-2H-benzo[e][1,2]oxaborinine-8-carboxylic acid]
MIC [2]: < 1 mg/L

O=C(O)c1c(F)ccc2c1OB(O)[C@@H](NC(=O)[C@H](NC(=O)N1CCN(C3CCN(C(=O)c4ccc(O)c(O)c4Cl)CC3)C1=O)c1ccc(P(=O)(O)O)cc1)C2 [Example 494, (R)-3-((R)-2-(3-(1-(2-chloro-3,4-dihydroxybenzoyl)piperidin-4-yl)-2-oxoimidazolidine-1-carboxamido)-2-(4-phosphonophenyl)acetamido)-7-fluoro-2-hydroxy-3,4-dihydro-2H-benzo[e][1,2]oxaborinine-8-carboxylic acid]
MIC [2]: < 1 mg/L

O=C(O)c1c(F)ccc2c1OB(O)[C@@H](NC(=O)[C@H](NC(=O)N1CCN(C3CCN(Cc4ccncc4)CC3)C1=O)c1cc(F)c(O)c(O)c1Cl)C2 [Example 493, (R)-3-((R)-2-(2-chloro-5-fluoro-3,4-dihydroxyphenyl)-2-(2-oxo-3-(1-(pyridin-4-ylmethyl)piperidin-4-yl)imidazolidine-1-carboxamido)acetamido)-7-fluoro-2-hydroxy-3,4-dihydro-2H-benzo[e][1,2]oxaborinine-8-carboxylic acid]
IC50 [1]: < 10 µM
MIC [2]: < 1 mg/L

O=C(O)c1c(F)ccc2c1OB(O)[C@@H](NC(=O)[C@H](NC(=O)N1CCN(Cc3ccc(O)c(O)c3Cl)C(=O)C1=O)c1cc(F)c(P(=O)(O)O)c(F)c1)C2 [Example 502, (R)-3-((R)-2-(4-(2-chloro-3,4-dihydroxybenzyl)-2,3-dioxopiperazine-1-carboxamido)-2-(3,5-difluoro-4-phosphonophenyl)acetamido)-7-fluoro-2-hydroxy-3,4-dihydro-2H-benzo[e][1,2]oxaborinine-8-carboxylic acid]
MIC [2]: < 1 mg/L

O=C(O)c1c(F)ccc2c1OB(O)[C@@H](NC(=O)C(NC(=O)N1CCN(C3CCN(C(=O)Nc4ccc(Cl)c(O)c4F)CC3)C(=O)C1=O)c1cc(F)c(O)c(O)c1Cl)C2 (stereo partly drawn) [Example 489, (3R)-3-(2-(4-(1-((4-chloro-2-fluoro-3-hydroxyphenyl)carbamoyl)piperidin-4-yl)-2,3-dioxopiperazine-1-carboxamido)-2-(2-chloro-5-fluoro-3,4-dihydroxyphenyl)acetamido)-7-fluoro-2-hydroxy-3,4-dihydro-2H-benzo[e][1,2]oxaborinine-8-carboxylic acid]
IC50 [1]: < 10 µM
MIC [2]: 2 to 4 mg/L (≈ 2.34 to 4.69 µM)

O=C(O)c1c(F)ccc2c1OB(O)[C@@H](NC(=O)[C@H](NC(=O)N1CCN(C3CCN(C(=O)Nc4cc(F)c(O)c(O)c4Cl)CC3)C1=O)c1ccc(P(=O)(O)O)cc1)C2 (single isomer, unassigned) [Example 500]
MIC [2]: < 1 mg/L

O=C(O)c1c(F)ccc2c1OB(O)[C@@H](NC(=O)[C@H](NC(=O)N1CCN(C3CCN(C(=O)Nc4cc(F)c(F)c(O)c4F)CC3)C(=O)C1=O)c1cc(F)c(O)c(O)c1Cl)C2 [Example 491, (R)-3-((R)-2-(2-chloro-5-fluoro-3,4-dihydroxyphenyl)-2-(2,3-dioxo-4-(1-((2,4,5-trifluoro-3-hydroxyphenyl)carbamoyl)piperidin-4-yl)piperazine-1-carboxamido)acetamido)-7-fluoro-2-hydroxy-3,4-dihydro-2H-benzo[e][1,2]oxaborinine-8-carboxylic acid]
IC50 [1]: < 10 µM
MIC [2]: < 1 mg/L

O=C(O)c1c(F)ccc2c1OB(O)[C@@H](NC(=O)C(NC(=O)N1CCN(C3CCN(C(=O)Nc4cc(O)c(F)c(F)c4)CC3)C(=O)C1=O)c1cc(F)c(O)c(O)c1Cl)C2 (stereo partly drawn) [Example 488, (3R)-3-(2-(2-chloro-5-fluoro-3,4-dihydroxyphenyl)-2-(4-(1-((3,4-difluoro-5-hydroxyphenyl)carbamoyl)piperidin-4-yl)-2,3-dioxopiperazine-1-carboxamido)acetamido)-7-fluoro-2-hydroxy-3,4-dihydro-2H-benzo[e][1,2]oxaborinine-8-carboxylic acid]
IC50 [1]: < 10 µM
MIC [2]: < 1 mg/L

O=C(O)c1c(F)ccc2c1OB(O)[C@@H](NC(=O)[C@H](NC(=O)N1CCN(S(=O)(=O)c3ccc(O)c(O)c3Cl)C1=O)c1ccc(P(=O)(O)O)cc1)C2 [Example 506, (R)-3-((R)-2-(3-((2-chloro-3,4-dihydroxyphenyl)sulfonyl)-2-oxoimidazolidine-1-carboxamido)-2-(4-phosphonophenyl)acetamido)-7-fluoro-2-hydroxy-3,4-dihydro-2H-benzo[e][1,2]oxaborinine-8-carboxylic acid]
MIC [2]: < 1 mg/L

O=C(O)c1c(F)ccc2c1OB(O)[C@@H](NC(=O)[C@H](NC(=O)N1CCN(C3CCN(C(=O)Nc4ccc(O)c(O)c4Cl)CC3)C1=O)c1ccc(P(=O)(O)O)cc1)C2 (single isomer, unassigned) [Example 497]
MIC [2]: < 1 mg/L

O=C(O)c1c(F)ccc2c1OB(O)[C@@H](NC(=O)C(NC(=O)N1CCN(C3CCN(C(=O)Nc4c(F)ccc(O)c4F)CC3)C(=O)C1=O)c1cc(F)c(O)c(O)c1Cl)C2 (stereo partly drawn) [Example 487, (3R)-3-(2-(2-chloro-5-fluoro-3,4-dihydroxyphenyl)-2-(4-(1-((2,6-difluoro-3-hydroxyphenyl)carbamoyl)piperidin-4-yl)-2,3-dioxopiperazine-1-carboxamido)acetamido)-7-fluoro-2-hydroxy-3,4-dihydro-2H-benzo[e][1,2]oxaborinine-8-carboxylic acid]
IC50 [1]: < 10 µM
MIC [2]: < 1 mg/L

O=C(O)c1cccc2c1OB(O)[C@@H](NC(=O)[C@H](NC(=O)N1CCN(Cc3cc(F)c(O)c(O)c3Cl)C(=O)C1=O)c1ccc(P(=O)(O)O)cc1)C2 [Example 504, (R)-3-((R)-2-(4-(2-chloro-5-fluoro-3,4-dihydroxybenzyl)-2,3-dioxopiperazine-1-carboxamido)-2-(4-phosphonophenyl)acetamido)-2-hydroxy-3,4-dihydro-2H-benzo[e][1,2]oxaborinine-8-carboxylic acid]
MIC [2]: < 1 mg/L

O=C(O)c1c(F)ccc2c1OB(O)[C@@H](NC(=O)[C@H](NC(=O)N1CCN(C3CCN(Cc4cccnc4)CC3)C1=O)c1cc(F)c(O)c(O)c1Cl)C2 [Example 492, (R)-3-((R)-2-(2-chloro-5-fluoro-3,4-dihydroxyphenyl)-2-(2-oxo-3-(1-(pyridin-3-ylmethyl)piperidin-4-yl)imidazolidine-1-carboxamido)acetamido)-7-fluoro-2-hydroxy-3,4-dihydro-2H-benzo[e][1,2]oxaborinine-8-carboxylic acid]
IC50 [1]: < 10 µM
MIC [2]: < 1 mg/L

From patent publication US20240270762A1, “PENICILLIN-BINDING PROTEIN INHIBITORS” (priority 2021, published 2024)
